Measured values reported in ChEMBL document CHEMBL1201862, “PubChem BioAssay data set” (2004).
Activity calls are given as the source filed them.

How the values were obtained:
[1] = insulin promoter down-regulators in MIN6 cells, imaging, high-content screening, mouse beta cells (AID 1628); format: functional
[2] = cytotoxicity in MIN6 insulinoma cells, dose response, cytotoxicity control, cell-based, mouse insulinoma (AID 2122); format: functional;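 further: confirmatory high-throughput counterscreen run to flag cytotoxic compounds; mouse MIN-6 beta cells carrying an insulin promoter eGFP reporter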
[3] = Artemis endonuclease inhibitor potency, dose response, biochemical, fluorescence intensity (AID 720701); format: functional;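 further: Artemis endonuclease enzyme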
[4] = molecular target: T1, NAD-dependent protein deacylase sirtuin-5, mitochondrial (Homo sapiens, UniProt Q9NXA8); assay: SIRT5 deacylase inhibitors, dose response, biochemical, fluorescence imaging, cherry-pick, set 6 (AID 720597)
[5] = TRPM1 promoter luciferase reporter signal decrease, dose response, MITF inhibitor project, cell-based, SK-MEL-5, dry powder, set 9 (AID 651588); format: functional
[6] = A375 melanoma cell viability loss, dose response, counter-screen for MITF inhibitor project, CellTiter-Glo luminescence, dry powder, set 4 (AID 624364); format: functional, cell-based; conditions: A-375;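 further: A375 melanoma cells are MITF independent so this is a counter screen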
[7] = MITF Orthogonal Assay: MALME3 CTG Assay Measured in Cell-Based System Using Plate Reader - 2084-04_Inhibitor_Dose_DryPowder_Activity_Set6.; format: functional; conditions: MALME-3
[8] = SK-MEL-5 parental cell viability reduction, dose response, orthogonal assay for MITF inhibitor project, CellTiter-Glo luminescence, dry powder, set 8 (AID 651586); format: functional, cell-based
[9] = MALME3 melanoma cell viability reduction, dose response, orthogonal assay for MITF inhibitor project, CellTiter-Glo luminescence, dry powder, set 5 (AID 651584); format: functional, cell-based; conditions: MALME-3
[10] = SK-MEL-5 parental line viability, dose response, MITF inhibitor project, cell-based, CellTiter-Glo, dry powder, set 6 (AID 624429); format: functional
[11] = MITF Orthogonal Assay: SK-MEL-5 CTG Assay Measured in Cell-Based System Using Plate Reader - 2084-02_Inhibitor_Dose_DryPowder_Activity_Set5.; format: functional
[12] = A375 melanoma cell cytotoxicity, dose response, counter-screen for MITF inhibitor project, CellTiter-Glo luminescence, dry powder, set 6 (AID 624488); format: functional, cell-based; conditions: A-375
[13] = MITF Measured in Cell-Based System Using Plate Reader - 2084-01_Inhibitor_Dose_DryPowder_Activity_Set6.; format: functional
[14] = MITF Measured in Cell-Based System Using Plate Reader - 2084-01_Inhibitor_Dose_DryPowder_Activity_Set7.; format: functional
[15] = cytotoxicity in primary human melanocytes, dose response, cytotoxicity control, cell-based, plate reader, dry powder (AID 651920); format: functional
[16] = T. cruzi growth inhibition in host cells, dose response, cell-based, plate reader, dry powder, set 2 (AID 652275); format: functional
[17] = growth inhibition of intracellular T. cruzi, dose response, cell-based, plate reader, dry powder samples (AID 651845); format: functional
[18] = T. cruzi intracellular amastigote growth inhibition, dose response, imaging, CA-I/72 strain, bovine embryo skeletal muscle, dry powder (AID 651885); format: functional, cell-based
[19] = HepG2 cell cytotoxicity, dose response, cytotoxicity control, ATP luminescence, dry powder, Set4 (AID 743143); format: functional, cell-based
[20] = molecular target: T1, NAD-dependent protein deacylase sirtuin-5, mitochondrial; assay: SIRT5 desuccinylase inhibitors, dose response, biochemical, fluorescence imaging, cherry-pick, set 5 (AID 720591);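 further: desuccinylation of succinyl peptide AMC substrate read as fluorescence after trypsin release; potency of inhibitors that lower fluorescence and may act on trypsin instead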

T1 sequence (Q9NXA8 whole entry): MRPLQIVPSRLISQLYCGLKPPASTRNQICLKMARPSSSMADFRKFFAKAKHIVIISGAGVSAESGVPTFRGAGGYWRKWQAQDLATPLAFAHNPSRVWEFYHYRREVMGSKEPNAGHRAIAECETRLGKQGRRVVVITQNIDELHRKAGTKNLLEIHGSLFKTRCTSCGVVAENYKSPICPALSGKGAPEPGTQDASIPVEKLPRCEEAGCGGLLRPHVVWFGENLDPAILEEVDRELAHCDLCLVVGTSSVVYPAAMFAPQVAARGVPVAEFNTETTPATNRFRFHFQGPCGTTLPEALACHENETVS

## COCCNc1nc(-n2nc(C)cc2C)nc2sc3c(c12)CCCC3
[1]
  IC50: 2.54 µM (active)
[2]
  IC50: 2.1 µM (active)
[3]
  IC50: 11.7 µM (active)

## COc1ccc(NC(=O)N2C[C@H](O)COC[C@@H]3O[C@@H](CC(=O)N4CCCCC4)CC[C@H]32)cc1
[4]
  AC50: 26.1 µM (active)

## O=C1C(Nc2ccccc2)=C(c2ccccc2)C(=O)c2ccccc21
[5]
  AC50: 28.8 µM (active)
[6]
  AC50: > 70 µM (inactive)
[7]
  AC50: 68.9 µM (active)
[8]
  AC50: 29.3 µM (active)
[9]
  AC50: 68.9 µM (active)
[10]
  AC50: 35 µM (active)
[11]
  AC50: 27.6 µM (active)
[12]
  AC50: > 70 µM (inactive)
[13]
  AC50: 10.2 µM (active)
[14]
  AC50: 8.71 µM (active)
[15]
  AC50: > 70 µM (inactive)

## CC(C)N1C[C@H](C)[C@@H](CN(C)Cc2cccc(Cl)c2)Oc2c(NC(=O)c3ccncc3)cccc2C1=O
[16]
  AC50: 0.00208 µM (active)
[17]
  AC50: 0.00208 µM (active)
[18]
  IC50: 0.00102 µM (active)

## O=C(CCCNC(=O)c1ccc(Cl)c(Cl)c1)N[C@@H]1CCCc2ccccc21
[19]
  AC50: > 52 µM (inactive)

## Cc1ccc(C(=O)COC(=O)CN2C(=O)C3C4CC(C(Br)C4Br)C3C2=O)cc1 (stereo not given)
[20]
  AC50: > 30 µM (inactive)
